Data taken from patent US20260337656A1, “METHODS OF SYNTHESIZING PEPTIDES WITH FREE N-TERMINAL CYSTEINE AND PRODUCTS THEREOF” (OHIO STATE INNOVATION FOUNDATION, priority 2022, published 2026).
No end group written: not given here.

How the values were obtained:
A. sobria ProAP [1] = target: T1, A. sobria ProAP (Aeromonas sobria, UniProt P46547); assay: Proline removal from peptide 8 by ProAP before N-terminal labeling (UPLC-MS); assay type: biochemical
Experimental: Peptide (100 μM) was incubated with ProAP (4 μM) in 20 mM Tris, pH 8.5, 100 mM NaCl for 1 h at 37° C. One half of the reaction (40 μL) was set aside for later UPLC-MS analysis, while the other half was mixed with 40 μL of FAM-CO-SR (400 μM), sodium 2-mercaptoethanesulfonate (2 mM), and TCEP (2.5 mM) in PBS (H 7.5). The mixture was incubated at room temperature for 5 h and analyzed by UPLC-MS.
We first tested the feasibility of generating an N-terminal cysteine by ProAP and specific N-terminal conjugation with a peptide as substrate. […] The reaction mixture was next treated with an excess of fluorescein 2-mercaptoethanesulfonate thioester (FAM-CO-SR; 4 equivalents) in the presence of 2-mercaptoethanesulfonate (2-MES) and TCEP in a phosphate buffer (pH 7.5).

A. sobria ProAP [2] = target: T1, A. sobria ProAP; assay: ProAP activity assay (kinetic constants of A. sobria ProAP against selected peptide substrates); assay type: biochemical; conditions: role: substrate; for decrease in catalytic activity on substitution of Ala for Gly at P2′: peptide 6 compared with 9, peptide 10 compared with 8; for kcat/KM: PBS pH 7.4, 2 mM DTT, 0-500 μM peptide, 0.5-25 nM ProAP, mean ± SD of three independent sets of experiments; for change in catalytic activity on replacement of His at P3′ with Gly or Ser: peptides 1 and 9 or peptides 3 and 6 compared
Experimental: A typical assay reaction (total volume of 100 μL) contained PBS (10 mM Na2HPO4, 1.8 mM KH2PO4, 137 mM NaCl, 2.7 mM KCl, 2 mM DTT pH 7.4) and 0-500 μM peptide substrate. The reaction was initiated by the addition of ProAP (final concentration of 0.5-25 nM) and quenched after 5-30 min by the addition of 100 μL of 10% TFA. The reaction mixture was centrifuged at 15,000 rpm in a microcentrifuge for 5 min, and the clear supernatant was analyzed on a Waters Acquity UPLC-MS equipped with a BEH C18 column (1.7 μm, 2.1 mm I.D., 100 mm length). The column was eluted with a linear gradient of acetonitrile (0-25% over 8 min) in water containing 0.05% TFA. The percentage of substrate-to-product conversion was determined by comparing the peak areas of the remaining substrate and the reaction product (monitored at 280 nm) and kept at ≤20%. The initial rates were calculated from the conversion percentages and plotted versus [S]. Data fitting against the Michaelis-Menten equation V=Vmax[S]/(KM+[S]) or the simplified equation V=kcat[E][S]/KM (when KM>>[S]) gave the kinetic constants kcat, KM, and/or kcat/KM.
To confirm the screening results, we individually synthesized a panel of peptides and determined their kinetic properties toward A. sobria ProAP (Table 1). Peptides 1-6 are representative (preferred) sequences selected from the library, while peptide 7 is the consensus sequence based on the screening results. Peptide 8 is a variant of peptide 7, containing a proline (instead of a lysine) at the P5′ position. We anticipated that a proline residue at this position would improve the proteolytic stability of the peptide. Peptide 9 is a variant of peptide 6 (substitution of Gly for Ala at the P2′ position) and was designed to test the importance of a Gly residue at the P2′ position. Peptide 10 is also a variant of peptide 6 but contains a Pro at position P5′ (in place of Lys) to impart proteolytic stability. Peptide 11 is derived from a colorless bead during library screening (Table C) and expected to be a poor substrate of ProAP (“negative” control). All peptides contained a Tyr at the P6′ position, to facilitate concentration measurement as well as monitoring the enzymatic reactions by UPLC (at 280 nm).

T1 sequence (P46547 whole entry, added parts left off): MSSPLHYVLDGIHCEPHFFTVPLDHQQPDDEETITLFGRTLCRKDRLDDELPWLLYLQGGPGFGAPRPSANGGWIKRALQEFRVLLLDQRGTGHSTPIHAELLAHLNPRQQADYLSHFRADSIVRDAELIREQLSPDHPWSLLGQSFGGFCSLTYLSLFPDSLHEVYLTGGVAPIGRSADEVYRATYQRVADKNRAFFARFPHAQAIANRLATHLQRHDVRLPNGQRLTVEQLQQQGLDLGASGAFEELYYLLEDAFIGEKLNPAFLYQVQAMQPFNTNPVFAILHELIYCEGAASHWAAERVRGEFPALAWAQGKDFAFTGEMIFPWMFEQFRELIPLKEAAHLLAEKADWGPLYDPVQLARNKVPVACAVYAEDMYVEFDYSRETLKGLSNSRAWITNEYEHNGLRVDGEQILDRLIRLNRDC

Compound	kcat/KM (A. sobria ProAP [2])	other results
O=C(O)CCP(CCC(=O)O)CCC(=O)O [TCEP, tris(carboxyethyl)phosphine, reference compound]	–	inhibition of A. sobria ProAP activity (A. sobria ProAP [1]; role: inhibitor): strongly inhibits
PCAHKAY-NH2 [Peptide 6, PCAHKAY]	–	decrease in catalytic activity on substitution of Ala for Gly at P2′ (A. sobria ProAP [2]): 2- to 3 fold
PCAHKPY-NH2 [Peptide 10, PCAHKPY]	2.8 ± 0.8 ×10^5 M^−1 s^−1	decrease in catalytic activity on substitution of Ala for Gly at P2′ (A. sobria ProAP [2]): 2- to 3 fold
PCASKAY-NH2 [Peptide 3, PCASKAY]	3.8 ± 0.4 ×10^5 M^−1 s^−1	change in catalytic activity on replacement of His at P3′ with Gly or Ser (A. sobria ProAP [2]): ≤ 1.3 fold
PCEFTRY-NH2 [Peptide 5, PCEFTRY]	3.2 ± 0.9 ×10^5 M^−1 s^−1	–
PCGGKAY-NH2 [Peptide 1, PCGGKAY]	7.0 ± 1.2 ×10^5 M^−1 s^−1	change in catalytic activity on replacement of His at P3′ with Gly or Ser (A. sobria ProAP [2]): ≤ 1.3 fold
PCGHKAY-NH2 [Peptide 9, PCGHKAY]	7.2 ± 2.6 ×10^5 M^−1 s^−1	–
PCGHKKY-NH2 [Peptide 7, PCGHKKY]	8.2 ± 0.7 ×10^5 M^−1 s^−1	–
PCGHKPY-NH2 [Peptide 8, PCGHKPY]	8.3 ± 3.2 ×10^5 M^−1 s^−1	disappearance of peptide on treatment with ProAP (A. sobria ProAP [1]; role: substrate, 100 μM peptide, 4 μM ProAP, 60 min): complete disappearance
PCGSSKY-NH2 [Peptide 2, PCGSSKY]	5.8 ± 1.0 ×10^5 M^−1 s^−1	–
PCHDETY-NH2 [Peptide 11, PCHDETY]	0.038 ± 0.010 ×10^5 M^−1 s^−1	less active than peptides 1-10 (A. sobria ProAP [2]; negative control compared with peptides 1-10): ~ 2 orders of magnitude
PCSHKGY-NH2 [Peptide 4, PCSHKGY]	3.2 ± 0.1 ×10^5 M^−1 s^−1	–
